Assay results from patent US20240317777A1, “NOVEL MACROCYCLIC AMINOPYRAZOLE COMPOUNDS AS CDK2 INHIBITORS” (Accutar Biotechnology Inc., priority 2023, published 2024).
Read-outs that look alike come from different tables or passages of the source.

What was measured:
[1] = test system: CCNE1-amplified OVCAR3 cells; experiment: Cell growth inhibition of CCNE1-amplified OVCAR3 cells (CellTiter-Glo); format: cell-based; conditions: 6 days
Protocol: Cell Growth Inhibition of CCNE1-Amplified OVCAR3 Cells
OVCAR3 cells were seeded in 96-well plates at 2000 cells/well in 90 μl of RPM11640 growth medium containing 10% FBS and 1% Penicillin Streptomycin, and then incubated at 37° C. overnight. The following day, the test compound was administered to the cells by using 1000× compound stock solution prepared in DMSO at various concentrations. 1000× compound stock solution was first diluted in culturing medium to 10x, then 10 uL compound medium was added to each well in the cell plates. After administration of the compound, the cells were then incubated at 37° C. for 6 days. Upon completion, the plates were equilibrated at room temperature for approximately 10 minutes. 100 ul of CellTiter-Glo® Reagent (Promega) was added to each well. The plates were then incubated at room temperature for 10 minutes and luminescence was recorded by EnSpire plate reader (PerkinElmer).

[2] = test system: Phospho-Rb (Ser807/811) in OVCAR3 cells; experiment: Phospho-Rb expression inhibition in OVCAR3 cells quantified by In Cell Western; format: cell-based; conditions: read-out: OVCAR-3 pRb IC50
Protocol: Phospho-Rb Expression Inhibition in OVCAR3 Cells Quantified by in Cell Western
OVCAR3 cells were obtained from American Type Culture Collection (ATCC, HTB-161). OVCAR3 cells were plated in 96-well plates (VWR #10062-900, or Corning #3904) in 90 uL culture medium at a density of 20,000 cells/well in the RPM11640 growth medium containing 10% FBS and 1% Penicillin Streptomycin, and then incubated at 37° C. overnight. The following day, the test compound was administered to the cells by using 1000× compound stock solution prepared in DMSO at various concentrations. 1000× compound stock solution was first diluted in culturing medium to 10x, then 10 uL compound medium was added to each well in the cell plates. After administration of the compound, the cells were then incubated at 37° C. for 24 hours. Upon completion, the cells were washed with PBS briefly. 150 uL/well of 4% formaldehyde was added and the plates were incubated at room temperature for 20 mins. The cells were washed with PBS briefly, and permeabilized with 150 uL/well of ice cold 100% methanol for 10 mins. The cells were washed with PBS briefly and blocked with 100 uL/well LI-COR blocking buffer for 1 hr at room temperature with gentle shaking. The cells were incubated overnight at 4° C. with 50 uL primary antibody rabbit anti-Phospho-Rb (Ser807/811) (1:500, Cell Signaling, #8516) and anti-Rb (1:200, Santa Cruz, sc-73598) diluted in Intercept Blocking Buffer (LI-COR, #927-60001) containing 0.1% Tween 20. The next day, the cells were washed with 200 uL PBS containing 0.1% Tween 20, 5×5 mins at room temperature with gentle shaking, and incubated with 50 uL secondary antibody, IRDye® 800CW Goat anti-Rabbit IgG (1:1000, LI-COR, #926-32211) and IRDye® 680RD Goat anti-Mouse IgG (1:1000, LI-COR, #926-68070), in LI-COR blocking buffer with 0.2% Tween 20 for 1 hr at room temperature with gentle shaking. The cells were washed with 200 uL PBS containing 0.1% Tween 20, 5×5 mins at room temperature with gentle shaking. The cells were washed with PBS for 5 mins. 100 uL fresh PBS was added to each well and the plates were imaged on a LI-COR Odyssey CLX plate reader.

[3] = Homo sapiens, OVCAR-3, 24 hours

Row | Compound | IC50 ([1]; Homo sapiens, OVCAR-3, 144 h) [nM] | IC50 [2, 3] [nM] | IC50 [1] [nM] | IC50 ([2]; 24 hours) [nM]
1 | O=C1NCCCOc2cc(ccn2)Nc2cc([nH]n2)[C@H]2CC[C@H](C2)O1 [Compound 2, (1^1S,1^3R,Z)-2^1H-5,11-dioxa-3,9-diaza-4(4,2)-pyridina-2(3,5)-pyrazola-1(1,3)-cyclopentanacycloundecaphan-10-one] | > 250 | > 250 |  | 
2 | C[C@@H]1CCC(C)(C)NC(=O)O[C@@H]2CC[C@@H](C2)c2cc([nH]n2)Nc2ccnc(c2)O1 [Compound 112, (1^1S,1^3R,6R,Z)-6,9,9-trimethyl-2^1H-5,12-dioxa-3,10-diaza-4(4,2)-pyridina-2(3,5)-pyrazola-1(1,3)-cyclopentanacyclododecaphan-11-one] | > 250 | 50 to 250 |  | 
3 | C[C@@H]1CCC(C)(C)NC(=O)O[C@@H]2CC[C@@H](C2)c2cc([nH]n2)Nc2cncc(c2)O1 [Compound 123, (1^1S,1^3R,6R,Z)-6,9,9-trimethyl-2^1H-5,12-dioxa-3,10-diaza-4(3,5)-pyridina-2(3,5)-pyrazola-1(1,3)-cyclopentanacyclododecaphan-11-one] | > 250 | > 250 |  | 
4 | O=C1N[C@H](C(F)(F)F)CCCOc2cc(ccn2)Nc2cc(n[nH]2)[C@H]2CC[C@H](C2)O1 [Compound 127, (1^1S,1^3R,9S,Z)-9-(trifluoromethyl)-2^1H-5,12-dioxa-3,10-diaza-4(4,2)-pyridina-2(3,5)-pyrazola-1(1,3)-cyclopentanacyclododecaphan-11-one] | > 250 | > 250 |  | 
5 | O=C1NC2CCN(CC2)c2cc(ccn2)Nc2cc(n[nH]2)[C@H]2CC[C@H](C2)O1 [Compound 136, (5^1S,5^3R,Z)-4^1H-6-oxa-3,8-diaza-2(2,4)-pyridina-1(1,4)-piperidina-4(5,3)-pyrazola-5(1,3)-cyclopentanacyclooctaphan-7-one] | > 250 | > 250 |  | 
6 | C[C@H]1Oc2cc(ccn2)Nc2cc(n[nH]2)[C@H]2CC[C@H](C2)OC(=O)N[C@H]2C[C@@H]1C2 [Compound 143, (1^1S,1^3R,7^1S,7^3S,6R,Z)-6-methyl-2^1H-5,10-dioxa-3,8-diaza-4(4,2)-pyridina-2(3,5)-pyrazola-1(1,3)-cyclopentana-7(1,3)-cyclobutanacyclodecaphan-9-one] | 50 to 250 | 50 to 250 |  | 
7 | CC1CCCNC(=O)OC2CCC(C2)c2cc([nH]n2)Nc2cc(c[n+]([O-])c2)O1 [Compound 153, (1^1S,1^3R,6R,Z)-6-methyl-11-oxo-2^1H-5,12-dioxa-3,10-diaza-4(3,5)-pyridin-1-iuma-2(3,5)-pyrazola-1(1,3)-cyclopentanacyclododecaphane 41-oxide] |  |  | > 250 | > 250
8 | CC1CCCNC(=O)OC2CCC(C2)c2cc([nH]n2)Nc2cc(c[n+]([O-])c2)O1 [Compound 154, (1^1S,1^3R,6S,Z)-6-methyl-11-oxo-2^1H-5,12-dioxa-3,10-diaza-4(3,5)-pyridin-1-iuma-2(3,5)-pyrazola-1(1,3)-cyclopentanacyclododecaphane 41-oxide] |  |  | > 250 | 50 to 250
9 | C[C@@H]1CCCNC(=O)O[C@@H]2CC[C@@H](C2)c2cc([nH]n2)Nc2cccc(c2)O1 [Compound 156, (1^1S,1^3R,6R,Z)-6-methyl-2^1H-5,12-dioxa-3,10-diaza-2(3,5)-pyrazola-4(1,3)-benzena-1(1,3)-cyclopentanacyclododecaphan-11-one] | > 250 | > 250 |  | 
10 | O=C1NCCCO[C@H](C(F)(F)F)c2cc(ccn2)Nc2cc(n[nH]2)[C@H]2CC[C@H](C2)O1 [Compound 160, (1^1S,1^3R,5S,Z)-5-(trifluoromethyl)-2^1H-6,12-dioxa-3,10-diaza-4(4,2)-pyridina-2(3,5)-pyrazola-1(1,3)-cyclopentanacyclododecaphan-11-one] | 50 to 250 | 50 to 250 |  | 
11 | [2H]C1([2H])CC[C@H](C)NC(=O)O[C@@H]2CC[C@@H](C2)c2cc([nH]n2)Nc2cc(ncc2F)O1 [Compound 175, (1^1S,1^3R,9S,Z)-4^5-fluoro-9-methyl-2^1H-5,12-dioxa-3,10-diaza-4(4,2)-pyridina-2(3,5)-pyrazola-1(1,3)-cyclopentanacyclododecaphan-11-one-6,6-d2] | > 250 | > 250 |  | 
12 | C[C@H]1CCCOc2cc(cc(F)n2)Nc2cc(n[nH]2)[C@H]2CC[C@H](C2)OC(=O)N1 [Compound 178, (1^1S,1^3R,9S,Z)-4^6-fluoro-9-methyl-2^1H-5,12-dioxa-3,10-diaza-4(4,2)-pyridina-2(3,5)-pyrazola-1(1,3)-cyclopentanacyclododecaphan-11-one] | 50 to 250 | 10 to 50 |  | 
13 | C[C@H]1CCCOc2ncc(F)c(c2F)Nc2cc(n[nH]2)[C@H]2CC[C@H](C2)OC(=O)N1 [Compound 180, (1^1S,1^3R,9S,Z)-4^3,4^5-difluoro-9-methyl-2^1H-5,12-dioxa-3,10-diaza-4(4,2)-pyridina-2(3,5)-pyrazola-1(1,3)-cyclopentanacyclododecaphan-11-one] | > 250 | > 250 |  | 
14 | C[C@H]1CCCOc2cc(ccn2)Nc2[nH]nc(c2Cl)[C@H]2CC[C@H](C2)OC(=O)N1 [Compound 184, (1^1S,1^3R,9S,E)-2^4-chloro-9-methyl-2^1H-5,12-dioxa-3,10-diaza-4(4,2)-pyridina-2(3,5)-pyrazola-1(1,3)-cyclopentanacyclododecaphan-11-one] | > 250 | > 250 |  | 
15 | C[C@@H]1NC(=O)O[C@H]2C[C@H](C[C@H]2F)c2cc([nH]n2)Nc2ccnc(c2)OCCC1(F)F [Compound 226, (1^1R,1^3S,1^4R,9S,Z)-1^4,8,8-trifluoro-9-methyl-2^1H-5,12-dioxa-3,10-diaza-4(4,2)-pyridina-2(3,5)-pyrazola-1(1,3)-cyclopentanacyclododecaphan-11-one] |  | 2 to 10 |  | 
16 | C[C@@H]1NC(=O)O[C@@H]2C[C@@H](C[C@@H]2F)c2cc([nH]n2)Nc2ccnc(c2)OCCC1(F)F [Compound 227, (1^1S,1^3R,1^4S,9S,Z)-1^4,8,8-trifluoro-9-methyl-2^1H-5,12-dioxa-3,10-diaza-4(4,2)-pyridina-2(3,5)-pyrazola-1(1,3)-cyclopentanacyclododecaphan-11-one] |  | 10 to 50 |  | 
17 | C[C@@H]1NC(=O)O[C@H]2CC(C[C@H]2F)c2n[nH]c(c2F)Nc2ccnc(c2)OCCC1(F)F [Compound 239, (1^1R,1^3S,1^4R,9S,E)-1^4,2^4,8,8-tetrafluoro-9-methyl-2^1H-5,12-dioxa-3,10-diaza-4(4,2)-pyridina-2(3,5)-pyrazola-1(1,3)-cyclopentanacyclododecaphan-11-one] |  | 10 to 50 |  | 
18 | C[C@@H]1NC(=O)O[C@@H]2CC(C[C@@H]2F)c2n[nH]c(c2F)Nc2ccnc(c2)OCCC1(F)F [Compound 240, (1^1S,1^3R,1^4S,9S,E)-1^4,2^4,8,8-tetrafluoro-9-methyl-2^1H-5,12-dioxa-3,10-diaza-4(4,2)-pyridina-2(3,5)-pyrazola-1(1,3)-cyclopentanacyclododecaphan-11-one] |  | 10 to 50 |  | 
19 | C[C@H]1CCCOc2cncc(n2)Nc2cc(n[nH]2)C2C[C@@H](F)[C@H](C2)OC(=O)N1 [Compound 242, (1^1R,1^3S,1^4R,9S,Z)-1^4-fluoro-9-methyl-2^1H-5,12-dioxa-3,10-diaza-4(2,6)-pyrazina-2(3,5)-pyrazola-1(1,3)-cyclopentanacyclododecaphan-11-one] |  | ≤ 2 |  | 
20 | C[C@H]1CCCOc2cncc(n2)Nc2[nH]nc(c2F)C2C[C@@H](F)[C@H](C2)OC(=O)N1 [Compound 243, (1^1R,1^3S,1^4R,9S,E)-1^4,2^4-difluoro-9-methyl-2^1H-5,12-dioxa-3,10-diaza-4(2,6)-pyrazina-2(3,5)-pyrazola-1(1,3)-cyclopentanacyclododecaphan-11-one] |  | ≤ 2 |  | 
